Assay results reported in paper PMC10053440, “Semi-Synthesis and Biological Evaluation of 25(R)-26-Acetoxy-3β,5α-Dihydroxycholest-6-One” (Marine Drugs, 2023).
Values after ≈ are worked out from the molar mass of the structure shown.

Legend:
[1] = tested on: HCT 116 (human colorectal cancer cell); assay: CCK-8 anti-proliferation assay, HCT 116; type: cell-based; details: at 20 µM, 48 h, mean ± SEM, read-out: Inhibition Rate (%)
Method: (§1) One concentration was set for each sample during preliminary screening and three multiple holes were set for each concentration. Eight concentration gradients were set for each sample for IC50 determination and three multiple holes were set for each concentration. […] The absorbance was measured at 450 nm with an enzyme labeling instrument and the original data and results were recorded. […] Doxorubicin was used as a positive control. All the cancer cell lines were obtained from Qingdao AC biotechnology Co., LTD, Qingdao, China.

[2] = tested on: MKN-45 (human gastric cancer cell); assay: CCK-8 anti-proliferation assay, MKN-45; type: cell-based; details: at 20 µM, 48 h, mean ± SEM, read-out: Inhibition Rate (%)
Method: as §1

[3] = tested on: PATU8988T (human pancreatic cancer cell); assay: CCK-8 anti-proliferation assay, PATU8988T; type: cell-based; details: PaTu 8988t, at 20 µM, 48 h, mean ± SEM, read-out: Inhibition Rate (%)
Method: as §1

[4] = tested on: GBC-SD (human gallbladder carcinoma cell); assay: CCK-8 anti-proliferation assay, GBC-SD; type: cell-based; details: at 20 µM, 48 h, mean ± SEM, read-out: Inhibition Rate (%)
Method: as §1

[5] = tested on: MCF7 (human breast cancer cell); assay: CCK-8 anti-proliferation assay, MCF7; type: cell-based; details: at 20 µM, 48 h, mean ± SEM, read-out: Inhibition Rate (%)
Method: as §1

[6] = tested on: L-02 (human hepatocyte cell); assay: CCK-8 anti-proliferation assay, L-02; type: cell-based; details: L-02 normal liver cells, at 20 µM, 48 h, mean ± SEM, read-out: Inhibition Rate (%)
Method: as §1

[7] = tested on: K-562 (human myeloid leukemia cell); assay: CCK-8 anti-proliferation assay, K-562; type: cell-based; details: 48 h, mean ± SEM
Method: as §1

5637 (HTB-9) cells = assay: Apoptosis assay, Annexin V-FITC/PI flow cytometry; type: cell-based, human; details: 48 h
Method: Next, the apoptosis study of compound ([…])-5 was investigated against 5637 (HTB-9) cells based on a standard flow cytometry technique and assessed by Annexin V-FITC/PI staining. […] The percent of apoptosis in cells was assayed according to the instructions (Vazyme, A211). 5637 (HTB-9) cells were seeded in 6-well plates at 2 × 10^5 cells/well overnight and treated with compound ([…])-5 at various concentrations for 48 h. Trypsinization of the cells occurred without EDTA and they were collected in tubes and suspended in 100 μL ice-cold 1 × binding buffer after being washed twice with PBS. Cells were stained with PI and FITC Annexin V for 10 min at room temperature following the instructions of the Annexin V FITC/PI kit (Vazyme Biotech, Nanjing, China). Next, 200 μL ice-cold 1 × binding buffer was added. The result was measured by flow cytometry (MoFlo XDP, Beckman, Pasadena, CA, USA). For each condition, a minimum of 10,000 cells were analyzed. Triplicate experiments were performed independently.

[8] = tested on: 293T (human embryonic kidney cell); assay: CCK-8 anti-proliferation assay, 293T; type: cell-based; details: HEK-293T, at 20 µM, 48 h, mean ± SEM, read-out: Inhibition Rate (%)
Method: as §1

[9] = tested on: CAL-62 (human thyroid anaplastic carcinoma cell); assay: CCK-8 anti-proliferation assay, CAL-62; type: cell-based; details: at 20 µM, 48 h, mean ± SEM, read-out: Inhibition Rate (%)
Method: as §1

[10] = tested on: DU145 (human prostate carcinoma cell); assay: CCK-8 anti-proliferation assay, DU145; type: cell-based; details: DU-145, at 20 µM, 48 h, mean ± SEM, read-out: Inhibition Rate (%)
Method: as §1

[11] = tested on: A549 (human lung adenocarcinoma cell); assay: CCK-8 anti-proliferation assay, A549; type: cell-based; details: A549, 48 h, at 20 µM, mean ± SEM, read-out: Inhibition Rate (%)
Method: as §1

[12] = tested on: TE-1 (human esophageal cancer cell); assay: CCK-8 anti-proliferation assay, TE-1; type: cell-based; details: at 20 µM, 48 h, mean ± SEM, read-out: Inhibition Rate (%)
Method: as §1

[13] = tested on: SF126 (human glioblastoma cell); assay: CCK-8 anti-proliferation assay, SF126; type: cell-based; details: SF-126, at 20 µM, 48 h, mean ± SEM, read-out: Inhibition Rate (%)
Method: as §1

[14] = tested on: A-375 (human melanoma cell); assay: CCK-8 anti-proliferation assay, A-375; type: cell-based; details: at 20 µM, 48 h, mean ± SEM, read-out: Inhibition Rate (%)
Method: as §1

[15] = tested on: HeLa (human cervical cancer cell); assay: CCK-8 anti-proliferation assay, HeLa; type: cell-based; details: at 20 µM, 48 h, mean ± SEM, read-out: Inhibition Rate (%)
Method: as §1

[16] = tested on: respiratory syncytial virus (RSV); assay: Anti-RSV activity assay (RT-qPCR); type: cell-based; details: human respiratory syncytial virus, HEp-2 cells, mean ± SEM, read-out: Inhibition rate (%) of RSV replication
Text: Remdesivir was selected and evaluated as a positive control.

[17] = tested on: 786-O (human renal cancer cell); assay: CCK-8 anti-proliferation assay, 786-O; type: cell-based; details: 786-0, at 20 µM, 48 h, mean ± SEM, read-out: Inhibition Rate (%)
Method: as §1

[18] = tested on: HepG2 (human liver carcinoma cell); assay: CCK-8 anti-proliferation assay, HepG2; type: cell-based
Method: as §1

[19] = tested on: 5637 (HTB-9) (human bladder cancer cell); assay: CCK-8 anti-proliferation assay, 5637 (HTB-9); type: cell-based
Method: as §1

[20] = tested on: HOS (human osteosarcoma cell); assay: CCK-8 anti-proliferation assay, HOS; type: cell-based; details: at 20 µM, 48 h, mean ± SEM, read-out: Inhibition Rate (%)
Method: as §1

A-673 (Ewing sarcoma) = assay: CCK-8 anti-proliferation assay, A-673; type: cell-based; details: Homo sapiens, A673, at 20 µM, 48 h, mean ± SEM, read-out: Inhibition Rate (%)
Method: as §1

[21] = tested on: human leukemia cell line K-562; details: cited from earlier work

## CC(=O)OC[C@H](C)CCC[C@@H](C)[C@H]1CC[C@H]2[C@@H]3CC(=O)[C@@]4(O)C[C@@H](O)CC[C@]4(C)[C@H]3CC[C@]12C [compound (25R)-5, (2R,6R)-6-((3S,5R,8S,9S,10R,13R,14S,17R)-3,5-Dihydroxy-10,13-Dimethyl-6-Oxohexadecahydro-1H-Cyclopenta[a]Phenanthren-17-yl)-2-Methylheptyl Acetate]
[1]
  inhibition at 20 µM: 59.3 ± 3.8%
[2]
  inhibition at 20 µM: 61.1 ± 1.4%
[3]
  inhibition at 20 µM: 65.9 ± 4.2%
[4]
  inhibition at 20 µM: 28.1 ± 1.5%
[5]
  inhibition at 20 µM: 19.3 ± 2.1%
[6]
  inhibition at 20 µM: -4.9 ± 3.4%
[7]; Homo sapiens, K562, at 20 µM, read-out: Inhibition Rate (%)
  inhibition at 20 µM: 17.1 ± 2.8%
[7]; at 20 µM
  Inhibition Rate (%): weak inhibition activity
5637 (HTB-9) cells
  induction of apoptosis (early-stage Annexin V-FITC+/PI- and late-stage Annexin V-FITC+/PI+): induced apoptotic cell death in a dose-dependent manner
[8]
  inhibition at 20 µM: 26.2 ± 1.5%
[9]
  inhibition at 20 µM: 18.2 ± 1.9%
[10]
  inhibition at 20 µM: 12.2 ± 2%
[11]
  inhibition at 20 µM: ≤ 50%
[12]
  inhibition at 20 µM: 29.5 ± 2.2%
[13]
  inhibition at 20 µM: 28.1 ± 0.5%
[14]
  inhibition at 20 µM: 76.3 ± 1.7%
[15]
  inhibition at 20 µM: 22.7 ± 1.2%
[16]
  inhibition at 10 µM: 29.4 ± 7.1%
[17]
  inhibition at 20 µM: 65.3 ± 0.5%
[18]; CCK-8, 48 h, read-out: IC50 against HepG2 cells
  IC50: 15.5 µM
[18]; at 20 µM, 48 h, mean ± SEM, read-out: Inhibition Rate (%)
  inhibition at 20 µM: 66.8 ± 2.1%
[19]; 5637 (HTB-9), at 20 µM, 48 h, mean ± SEM, read-out: Inhibition Rate (%)
  inhibition at 20 µM: 64.7 ± 3.4%
[19]; CCK-8, 48 h, read-out: IC50 against 5637 (HTB-9) cells
  IC50: 4.8 µM
[20]
  inhibition at 20 µM: 22.2 ± 1.1%
A-673 (Ewing sarcoma)
  inhibition at 20 µM: 49.4 ± 1.4%

## CC(=O)OCC(C)CCC[C@@H](C)[C@H]1CC[C@H]2[C@@H]3CC(=O)[C@@]4(O)C[C@@H](O)CC[C@]4(C)[C@H]3CC[C@]12C (stereo partly drawn) [compound 5]
[21]
  LC50: 0.9 µg/mL (≈ 1.89 µM)
[16]
  inhibition at 10 µM: 18.3 ± 3.8%
